Measurements published in US12552796B2, “EED inhibitor, and preparation method therefor and use thereof” (SHANGHAITECH UNIVERSITY, priority 2019, dated 2026).
Where two headings read alike, the source gives them in different places.

Legend:
[1] = Pharmacokinetic study in rats; format: in vivo, SD rats; conditions: rat; for AUC(0-inf) / Cmax / Tmax / clearance / half-life / MRT inf: male, SD, plasma; for MRT inf: read-out: MRT0-∞
Description: Six SPF SD rats, male, weighing 180-220 g, were randomly divided into 2 groups with 3 rats in each group. The compounds of the present disclosure were administered by oral gavage (PO) and intravenous injection (IV), respectively, and the assay compounds were formulated with a vehicle (5% DMSO+10% Solutol+85% pH 4.65 Acetate buffer).
Dosage: 1 mg/kg for intravenous injection and 2 mg/kg for oral administration.
Dosing volume: 5 mL/kg for intravenous injection and 10 mL/kg for oral administration.
The oral administration group was fasted overnight (10-14 h) before the assay, and drank water freely. After 4 hours of administration, they were fed uniformly. They were weighed before administration, and the dosage was calculated according to the body weight.
Intravenous administration: 0.083, 0.25, 0.5, 1, 2, 4, 6, 8, 10 and 24 h after administration;
Oral gavage administration: 0.25, 0.5, 1, 2, 4, 6, 8, 10, 12 and 24 h after administration;
Blood was collected from the jugular vein of rats at the above set time points, about 0.2 mL each time. The blood was anticoagulated with heparin sodium, placed on ice after collection, and centrifuged within 1 hour to separate the plasma (centrifugation conditions: 6800 g, 6 minutes, 2-8° C.). Plasma samples were stored in a −80° C. freezer prior to analysis.
The concentration of each compound in rat plasma was determined by LC/MS/MS method.
Through the plasma drug concentration data at different time points, pharmacokinetic parameters were calculated using Phoenix WinNonlin 7.0, thereby providing parameters such as AUC0-t, AUC0-∞, MRT0-∞, Cmax, Tmax, and T1/2 and mean and standard deviation thereof.

[2] = system: cellular H3K27 methylation; test: Cellular H3K27 methylation assay (Western blot of H3K27me3 in HeLa cells); format: cell-based; conditions: Homo sapiens, 72 h, read-out: PD IC50
WSU-DLCL2 cells = test: Cell proliferation assay, WSU-DLCL2; format: cell-based; conditions: Homo sapiens
Description: (§1) Human B-cell non-Hodgkin's lymphoma cells WSU-DLCL2, Karpas422 and Pfeiffer were cultured in cell culture flasks in a sterile incubator with 95% relative humidity and 5% CO2 at 37° C. The medium was RPMI-1640 (Gibco, product No. 31800022) containing 15% fetal bovine serum (FBS, Gibco, product No. 10099141) and 0.1% penicillin/streptomycin solution (P/S). In order to assay the effects of compounds on cell proliferation, cells in exponential growth phase were seeded into a 12-well plate (Nunc, product No. 150628) with 1 mL of medium per well, wherein WSU-DLCL2 and Karpas422 were seeded at a density of 1×10^5 cells/well, and Pfeiffer was seeded at a density of 2×10^5 cells/well. At the same time, different concentrations of compounds were added to the wells that had seeded with cells (6 concentrations were set for each compound at 3-fold serial dilution), and the final concentration of DMSO was 0.1%. After that, the number of viable cells was determined by Vi-CELL (Beckman Coulter) for WSU-DLCL2 and Pfeiffer every 3 days, and for Karpas422 on days 4, 7, and 11, respectively. The cells counted each time were seeded into a new 12-well plate at the same density, and supplemented with fresh medium to 1 mL. Different concentrations of compounds were added at the same time. WSU-DLCL2 and Pfeiffer were cultured to the 9th day, and Karpas422 was cultured to the 14th day. Cell data were collected uniformly, and analyzed with GraphPad prisim5. Dose curves were fitted, and IC50 values of the assay compounds were obtained.

Karpas422 cells = test: Cell proliferation assay, Karpas422; format: cell-based; conditions: Homo sapiens
Description: as §1

Pfeiffer cells = test: Cell proliferation assay, Pfeiffer; format: cell-based; conditions: Homo sapiens, cultured to the 9th day, read-out: Anti-proliferation IC50
Description: as §1

[3] = HeLa cells, 3 days, H3K27me3 level by Western blot
[4] = WSUDLCL2, WSU-DLCL2 cells, cultured to the 9th day, read-out: Anti-proliferation IC50
[5] = WSUDLCL2, read-out: Anti-proliferation IC50
[6] = KARPAS-422, Karpas422 cells, cultured to the 14th day, read-out: Anti-proliferation IC50

## CC1(COc2cnc(NCc3c(F)ccc4c3CCO4)n3cnnc23)COC1 [HJM-105]
[1]; IV, 1 mg/kg
  AUC(0-inf): 1910 ng·h/mL
  Cmax: 1600 ng/mL
  Tmax: 0.08 h
  clearance: 8.83 mL/min/kg
  half-life: 1.82 h
  MRT inf: 1.56 h
[1]; PO, 2 mg/kg
  AUC(0-inf): 1790 ng·h/mL
  Cmax: 342 ng/mL
  Tmax: 2.83 h
  half-life: 1.41 h
  MRT inf: 3.29 h
  F: 47.22%
[2]; [3]
  IC50: 29.4 nM
WSU-DLCL2 cells; [4]
  IC50: 35.4 nM

## CN(C)C(=O)c1cnc(NCc2c(F)ccc3c2CCO3)n2cnnc12 [HJM-025]
[2]; HeLa
  IC50: 43.3 nM
WSU-DLCL2 cells; [5]
  IC50: 26.4 nM

## Fc1ccc2c(c1CNc1ncc(OCC3CC3)c3nncn13)CCO2 [HJM-019]
[2]; [3]
  IC50: 29.4 nM
WSU-DLCL2 cells; [4]
  IC50: 72 nM

## Fc1ccc2c(c1CNc1ncc(OCC3CCOCC3)c3nncn13)CCO2 [HJM-020]
[2]; [3]
  IC50: 39.8 nM
WSU-DLCL2 cells; [4]
  IC50: 48.5 nM

## O=C1CCCN1c1cnc(NCc2c(F)ccc3c2CCO3)n2cnnc12 [HJM-067]
[1]; IV, 1 mg/kg
  AUC(0-inf): 695 ng·h/mL
  Cmax: 946 ng/mL
  Tmax: 0.08 h
  clearance: 24.1 mL/min/kg
  half-life: 3 h
  MRT inf: 0.8 h
[1]; PO, 2 mg/kg
  AUC(0-inf): 846 ng·h/mL
  Cmax: 306 ng/mL
  Tmax: 0.83 h
  half-life: 3.03 h
  MRT inf: 2.7 h
  F: 60.72%
[2]; HeLa
  IC50: 21.1 nM
WSU-DLCL2 cells; [5]
  IC50: 29.4 nM
Karpas422 cells; KARPAS-422, read-out: Anti-proliferation IC50
  IC50: 51 nM

## CS(=O)(=O)c1ccc(-c2cnc(NCc3ccco3)n3cnnc23)cc1 [EED226, reference compound]
[2]; [3]
  IC50: 220 nM
WSU-DLCL2 cells; [4]
  IC50: 131 nM
Karpas422 cells; [6]
  IC50: 123 nM

## O=C(c1cnc(NCc2c(F)ccc3c2CCO3)n2cnnc12)N1CCOCC1 [HJM-027]
[2]; [3]
  IC50: 89.5 nM
WSU-DLCL2 cells; [4]
  IC50: 58 nM

## COCCCc1cnc(NCc2c(F)ccc3c2CCO3)n2cnnc12 [HJM-011]
[2]; [3]
  IC50: 33.8 nM
WSU-DLCL2 cells; [4]
  IC50: 86.3 nM

## CN(C)CCC(=O)Nc1cnc(NCc2c(F)ccc3c2CCO3)n2cnnc12 [HJM-082]
[2]; [3]
  IC50: 29.9 nM
WSU-DLCL2 cells; [4]
  IC50: 124 nM

## CCOCCc1cnc(NCc2c(F)ccc3c2CCO3)n2cnnc12 [HJM-010]
[2]; [3]
  IC50: 44.6 nM
WSU-DLCL2 cells; [4]
  IC50: 77.8 nM

## O=C(Nc1cnc(NCc2c(F)ccc3c2CCO3)n2cnnc12)c1ccccc1 [HJM-042]
[2]; [3]
  IC50: 60.5 nM
WSU-DLCL2 cells; [4]
  IC50: 82 nM

## COCCN(C)C(=O)c1cnc(NCc2c(F)ccc3c2CCO3)n2cnnc12 [HJM-152]
[2]; [3]
  IC50: 73.2 nM
WSU-DLCL2 cells; [4]
  IC50: 106 nM

## O=C(CC1CC1)Nc1cnc(NCc2c(F)ccc3c2CCO3)n2cnnc12 [HJM-031]
[2]; [3]
  IC50: 39.6 nM
WSU-DLCL2 cells; [4]
  IC50: 80.6 nM

## O=C(Nc1cnc(NCc2c(F)ccc3c2CCO3)n2cnnc12)C1CC1 [HJM-030]
[1]; IV, 1 mg/kg
  AUC(0-inf): 1230 ng·h/mL
  Cmax: 1500 ng/mL
  Tmax: 0.08 h
  clearance: 13.6 mL/min/kg
  half-life: 1.7 h
  MRT inf: 1.02 h
[1]; PO, 2 mg/kg
  AUC(0-inf): 1450 ng·h/mL
  Cmax: 394 ng/mL
  Tmax: 0.42 h
  half-life: 1.32 h
  MRT inf: 2.93 h
  F: 58.53%
[2]; [3]
  IC50: 26.7 nM
WSU-DLCL2 cells; [4]
  IC50: 39.6 nM
Karpas422 cells; [6]
  IC50: 42.1 nM

## CC(F)C(=O)Nc1cnc(NCc2c(F)ccc3c2CCO3)n2cnnc12 (centres unmarked) [HJM-072]
[2]; [3]
  IC50: 30 nM
WSU-DLCL2 cells; [4]
  IC50: 120 nM

## CN1CC(Oc2cnc(NCc3c(F)ccc4c3CCO4)n3cnnc23)C1 [HJM-114]
[2]; [3]
  IC50: 68 nM
WSU-DLCL2 cells; [4]
  IC50: 211 nM

## CC(Oc1cnc(NCc2c(F)ccc3c2CCO3)n2cnnc12)C1COC1 (centres unmarked) [HJM-106]
[2]; [3]
  IC50: 57.7 nM
WSU-DLCL2 cells; [4]
  IC50: 39.8 nM

## CN(C(=O)CC1CC1)c1cnc(NCc2c(F)ccc3c2CCO3)n2cnnc12 [HJM-073]
[2]; [3]
  IC50: 39.3 nM
WSU-DLCL2 cells; [4]
  IC50: 29.4 nM

## COCCOCC(=O)Nc1cnc(NCc2c(F)ccc3c2CCO3)n2cnnc12 [HJM-084]
[2]; [3]
  IC50: 84 nM
WSU-DLCL2 cells; [4]
  IC50: 86.9 nM

## CCN(C(=O)C1CC1)c1cnc(NCc2c(F)ccc3c2CCO3)n2cnnc12 [HJM-079]
[1]; IV, 1 mg/kg
  AUC(0-inf): 857 ng·h/mL
  Cmax: 750 ng/mL
  Tmax: 0.08 h
  clearance: 19.5 mL/min/kg
  half-life: 0.92 h
  MRT inf: 1.1 h
[1]; PO, 2 mg/kg
  AUC(0-inf): 706 ng·h/mL
  Cmax: 222 ng/mL
  Tmax: 0.42 h
  half-life: 1.72 h
  MRT inf: 2.94 h
  F: 40.87%
[2]; [3]
  IC50: 15.3 nM
WSU-DLCL2 cells; [4]
  IC50: 36.8 nM

## Fc1ccc2c(c1CNc1ncc(OCC3CCO3)c3nncn13)CCO2 (centres unmarked) [HJM-103]
[2]; [3]
  IC50: 94.2 nM
WSU-DLCL2 cells; [4]
  IC50: 148 nM

## COCC(=O)Nc1cnc(NCc2c(F)ccc3c2CCO3)n2cnnc12 [HJM-083]
[2]; [3]
  IC50: 28.5 nM
WSU-DLCL2 cells; [4]
  IC50: 28 nM

## N#CCOc1cnc(NCc2c(F)ccc3c2CCO3)n2cnnc12 [HJM-145]
[2]; [3]
  IC50: 32.8 nM
WSU-DLCL2 cells; [4]
  IC50: 47.3 nM

## Fc1ccc2c(c1CNc1ncc(OCC3CCCO3)c3nncn13)CCO2 (centres unmarked) [HJM-101]
[2]; [3]
  IC50: 39.5 nM
WSU-DLCL2 cells; [4]
  IC50: 52.6 nM

## COCCOc1cnc(NCc2c(F)ccc3c2CCO3)n2cnnc12 [HJM-137]
[2]; [3]
  IC50: 62 nM
WSU-DLCL2 cells; [4]
  IC50: 51.4 nM

## Fc1ccc2c(c1CNc1ncc(OCC3CCOC3)c3nncn13)CCO2 (centres unmarked) [HJM-102]
Pfeiffer cells
  IC50: 47.4 nM
[1]; IV, 1 mg/kg
  AUC(0-inf): 1140 ng·h/mL
  Cmax: 1180 ng/mL
  Tmax: 0.08 h
  clearance: 14.8 mL/min/kg
  half-life: 1.98 h
  MRT inf: 1.4 h
[1]; PO, 2 mg/kg
  AUC(0-inf): 1890 ng·h/mL
  Cmax: 369 ng/mL
  Tmax: 1.5 h
  half-life: 1.68 h
  MRT inf: 3.55 h
  F: 82.62%
[2]; [3]
  IC50: 32.7 nM
WSU-DLCL2 cells; [4]
  IC50: 25.1 nM
Karpas422 cells; [6]
  IC50: 99.3 nM

## O=C(Nc1cnc(NCc2c(F)ccc3c2CCO3)n2cnnc12)C1CCCO1 (centres unmarked) [HJM-037]
[2]; [3]
  IC50: 64.7 nM
WSU-DLCL2 cells; [4]
  IC50: 115 nM

## Fc1ccc2c(c1CNc1ncc(OC3CCC3)c3nncn13)CCO2 [HJM-017]
[2]; [3]
  IC50: 26.3 nM
WSU-DLCL2 cells; [4]
  IC50: 113 nM

## CC(C)Oc1cnc(NCc2c(F)ccc3c2CCO3)n2cnnc12 [HJM-015]
[2]; [3]
  IC50: 25.4 nM
WSU-DLCL2 cells; [4]
  IC50: 115 nM

## COCCCOc1cnc(NCc2c(F)ccc3c2CCO3)n2cnnc12 [HJM-138]
[2]; [3]
  IC50: 49.8 nM
WSU-DLCL2 cells; [4]
  IC50: 43.2 nM
